Assay results reported in patent US8273775B2, “Non-steroidal brassinosteroid mimetic” (priority 2006, dated 2012).

Tested on: gene expression in Col-0 seedling shoots
Experiment: Microarray analysis (ATH1 Affymetrix) after BL or abrasin treatment
Assay type: in vivo, Arabidopsis
Protocol: FIG. 14: Clustering of gene expression profiles by QT-clust analysis. Clusters illustrating the major patterns of the data sets. Points: BIK-30: 30 μM abrasin 30 min; BL-30: 1 μM brassinolide 30 min; DMSO-30: control DMSO 30 min; BIK-120: 30 μM abrasin 120 min; BL-120: 1 μM brassinolide 120 min; DMSO-120: control DMSO 120 min.
Col-0 seeds were germinated vertically on ½ MS medium for 7 days under 16 h light/8 h dark cycles. The seedlings were overlaid with liquid ½ MS medium containing 1 μM brassinolide (BL, Fuji Chemical Industries, Ltd., Toyama, Japan), 30 μM abrasin (BIK, ChemBridge Corporation) and DMSO and treated for 30 and 120 min. The shoot parts were collected for RNA isolation. All sampling points were performed in three independent experiments. RNA was extracted using RNeasy kit (Qiagene). […] total RNA per array was used to hybridise the ATH1 Affymetrix Arabidopsis arrays according to standard procedure. The overrepresentation analyses were performed using BiNGO software (Maere et al., 2005).
We performed a microarray analysis using the Arabidopsis whole genome chip (Affymetix) to determine whether abrasin activated the expression of BR-inducible genes at transcriptional level. Wild-type Col-0 seedlings were exposed to 1 μM BL, 30 μM ABRASIN and DMSO (mock-treatment) for two time points (30 min and 120 min) and the shoot parts were collected for RNA isolation. The analysis of the variance of the normalized gene expression data took in account the variability parameters affecting the expression level: type of hormone treatment, duration of treatment and the interaction between these two.

CC(C)[C@H](C)[C@@H](O)[C@H](O)[C@@H](C)[C@H]1CC[C@H]2[C@@H]3COC(=O)[C@H]4C[C@H](O)[C@H](O)C[C@]4(C)[C@H]3CC[C@]12C [BL, brassinolide, reference compound]
expression of BR biosynthesis genes (CPD, DWF4, BR6OX2), Cluster 1 (1 μM BL, 30 μM ABRASIN): down-regulated | expression of genes involved in the auxin pathway (IAA29, IAA2) (1 μM BL, 30 μM ABRASIN): significantly down-regulated | induction of early auxin-inducible SAUR family genes, Cluster 3 (1 μM BL, 30 μM ABRASIN, 30 and 120 min): induced by BL as faster as 30 min treatment | Fold-change AT1G04330 expressed protein (30 min): 1.04 | Fold-change AT1G05470 endonuclease/exonuclease/phosphatase family protein (30 min): 1.04 | Fold-change AT1G06520 Encodes a membrane associated mitochondrial localized protein (30 min): 1.57 | Fold-change AT1G06570 4-hydroxyphenylpyruvate dioxygenase (HPD) (30 min): 0.87 | Fold-change AT1G10550 xyloglucan:xyloglucosyl transferase (30 min): 1.34 | Fold-change AT1G12710 F-box family protein (30 min): 1.26 | Fold-change AT1G12750 rhomboid family protein (30 min): 1.15 | Fold-change AT1G14130 2-oxoglutarate-dependent dioxygenase (30 min): 1.26 | Fold-change AT1G14700 purple acid phosphatase (30 min): 0.73 | Fold-change AT1G16640 transcriptional factor B3 family protein (30 min): 1.02 | Fold-change AT1G17230 leucine-rich repeat family protein (30 min): 1.08 | Fold-change AT1G18020; AT1G17990 [AT1G18020, 12-oxophytodienoate reductase, (30 min): 0.80 | Fold-change AT1G19320 pathogenesis-related thaumatin family protein (30 min): 0.81 | Fold-change AT1G20350 mitochondrial import inner membrane translocase subunit (30 min): 0.99 | Fold-change AT1G21050 expressed protein (30 min): 0.72 | Fold-change AT1G21760 F-box family protein (30 min): 1.02 | Fold-change AT1G22360 UDP-glucoronosyl/UDP-glucosyl transferase family protein (30 min): 0.94 | Fold-change AT1G23080 auxin efflux carrier protein (PIN7) (30 min): 0.89 | Fold-change AT1G26800 zinc finger (C3HC4-type RING finger) family protein, (30 min): 1.51 | Fold-change AT1G27730 zinc finger (C2H2 type) family protein (30 min): 0.18 | Fold-change AT1G28130 encodes an IAA-amido synthase (30 min): 0.85 | Fold-change AT1G28190 expressed protein (30 min): 0.66 | Fold-change AT1G28480 glutaredoxin family protein (30 min): 0.99 | Fold-change AT1G31040 zinc-binding protein-related (30 min): 0.88 | Fold-change AT1G31310 hydroxyproline-rich glycoprotein family protein (30 min): 0.85 | Fold-change AT1G31770 ABC transporter family protein (30 min): 0.99 | Fold-change AT1G32190 expressed protein (30 min): 1.00 | Fold-change AT1G32690 expressed protein (30 min): 0.92 | Fold-change AT1G36940 expressed protein (30 min): 0.89 | Fold-change AT1G49780 U-box domain-containing protein (30 min): 0.53 | Fold-change AT1G53870; AT1G53890 [AT1G53870, expressed protein (30 min): 0.89 | Fold-change AT1G54050 17.4 kDa class III heat shock protein (HSP17.4-CIII) (30 min): 1.09 | Fold-change AT1G54200 expressed protein (30 min): 1.16 | Fold-change AT1G55920 serine O-acetyltransferase (30 min): 1.04 | Fold-change AT1G57560 myb family transcription factor (MYB50) (30 min): 1.04 | Fold-change AT1G59590 expressed protein (30 min): 0.95 | Fold-change AT1G59660 nucleoporin family proteinmily (30 min): 1.67 | Fold-change AT1G62300 WRKY family transcription factor (30 min): 0.63 | Fold-change AT1G63050 membrane bound O-acyl transferase (MBOAT) family protein (30 min): 0.98 | Fold-change AT1G66160 U-box domain-containing protein, (30 min): 1.10 | Fold-change AT1G66890 expressed protein (30 min): 0.72 | Fold-change AT1G68330 expressed protein (30 min): 0.90 | Fold-change AT1G68810 basic helix-loop-helix (bHLH) family protein (30 min): 1.11 | Fold-change AT1G69160 expressed protein (30 min): 1.06 | Fold-change AT1G70990 proline-rich family protein (30 min): 1.59 | Fold-change AT1G71030 Encodes a putative myb family transcription factor (30 min): 0.84 | Fold-change AT1G72060 expressed protein (30 min): 0.96 | Fold-change AT1G72180 leucine-rich repeat transmembrane protein kinase (30 min): 0.87 | Fold-change AT1G72800 nuM1-related, contains (30 min): 1.08 | Fold-change AT1G75270 dehydroascorbate reductase (30 min): 1.27 | Fold-change AT1G75500 nodulin MtN21 family protein (30 min): 0.91 | Fold-change AT1G76240 expressed protein, (30 min): 0.57 | Fold-change AT1G76410 zinc finger (C3HC4-type RING finger) (30 min): 1.61 | Fold-change AT1G79110 expressed protein (30 min): 1.09 | Fold-change AT1G79630 protein phosphatase 2C family protein (30 min): 0.78 | Fold-change AT1G80440 kelch repeat-containing F-box family protein (30 min): 1.71 | Fold-change AT2G01300 expressed protein (30 min): 1.16 | Fold-change AT2G01990 expressed protein, (30 min): 0.91 | Fold-change AT2G04240 zinc finger (C3HC4-type RING finger) family protein (30 min): 1.46 | Fold-change AT2G05540 glycine-rich protein (30 min): 0.92 | Fold-change AT2G12290; AT4G19700 [AT2G12290, expressed protein]; [AT4G19700, expressed protein] (30 min): 0.80 | Fold-change AT2G18010 auxin-responsive family protein (SAUR10) (30 min): 1.60 | Fold-change AT2G19800 expressed protein (30 min): 1.20 | Fold-change AT2G22860 phytosulfokines 2 (PSK2) (30 min): 0.86 | Fold-change AT2G23180 cytochrome P450, putative (30 min): 1.10
